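Step 1: Grow cells in 96-well plates. Step 2: Expose to compound for 48 hours at 5 concentrations. Step 3: Interpolate endpoints linearly; if unreached, use highest concentration. Definition used: TGI = concentration required for complete inhibition of growth.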
Experiments:
Experiment in all cases: NCI tumour cell line growth inhibition, 48 h
[1] = tested on: HOP-92 NSCLC
[2] = tested on: SF-295 CNS
[3] = tested on: IGROV1 ovarian
[4] = tested on: MOLT-4 leukemia
[5] = tested on: SR leukemia
[6] = tested on: SNB-19 CNS
[7] = tested on: MDA-N
[8] = tested on: ACHN renal
[9] = tested on: HS 578T breast
[10] = tested on: PC-3 prostate
[11] = tested on: COLO 205 colon
[12] = tested on: SN12C renal

Row | SMILES | TGI [1] | TGI [2] | TGI [3] | TGI [4] | TGI [5] | TGI [6] | TGI [7] | TGI [8] | TGI [9] | TGI [10] | TGI [11] | TGI [12]
1 | O=C1C(CN2CCOCC2)CCCC1CN1CCOCC1 (stereo not drawn) | 1.97 µM | 50.5 µM | 17.3 µM | 2.33 µM | > 100 µM | 45.7 µM | 16.1 µM | 3.53 µM | 75.9 µM | 28.9 µM | 6.21 µM | 7.71 µM
2 | COC(=O)c1ccc(Nc2nc3nc[nH]c3c(=O)[nH]2)cc1 | > 100 µM | > 100 µM | > 100 µM | > 100 µM | > 100 µM | > 100 µM | > 100 µM | > 100 µM | > 100 µM | > 100 µM | > 100 µM | > 100 µM
3 | O=C1c2cn[nH]c2C(c2ccccc2)N1c1ccccc1 (stereo not drawn) | > 10 µM | > 10 µM | > 10 µM | > 10 µM | > 10 µM | > 10 µM | > 10 µM | > 10 µM | > 10 µM | > 10 µM | > 10 µM | > 10 µM
4 | COc1ccccc1C[C@@H]1OC2(C=CC(=O)C=C2)O[C@H]1Cc1ccccc1OC | 20.1 µM | 22.9 µM | 13.6 µM | > 50 µM | 13.1 µM | 24.2 µM | 21.7 µM | 17.7 µM | 29.3 µM | 20.6 µM | 14.9 µM | 23.4 µM
5 | CC(=O)N1CCn2c1nc1cc(Cl)ccc12 | 81.4 µM | > 100 µM | > 100 µM | > 100 µM | > 100 µM | > 100 µM | > 100 µM | > 100 µM | > 100 µM | > 100 µM | > 100 µM | > 100 µM
6 | CC(C)C1N(C)c2ccc(Cl)cc2[C@H]2c3ccccc3CCN12 (stereo partly drawn) | > 100 µM | > 100 µM | > 100 µM | > 100 µM | > 100 µM | > 100 µM | 92 µM | > 100 µM | 82.1 µM | > 100 µM | > 100 µM | > 100 µM
7 | CC(=O)N(O)c1ccc(-c2nc3ccccc3s2)cc1 | > 100 µM | > 100 µM | > 100 µM | > 100 µM | > 100 µM | > 100 µM | > 100 µM | > 100 µM | > 100 µM | > 100 µM | > 100 µM | > 100 µM
8 | CCN(CC)c1ccc(/C=C/C=C2C(=O)NC(=S)NC2=O)cc1 | > 100 µM | > 100 µM | > 100 µM | > 100 µM | > 100 µM | > 100 µM | > 61.6 µM | > 100 µM | > 53.7 µM | > 100 µM | > 100 µM | > 100 µM
9 | CN(C)/N=C1\CC(c2ccccc2)C(C#N)(C#N)C1(C#N)C#N (stereo not drawn) | 29.7 µM | 48.1 µM | 45.3 µM | 56.5 µM | > 100 µM | 54.1 µM | 40 µM | 34.8 µM | 75.1 µM | 35.6 µM | 22.1 µM | 36.9 µM
10 | COc1cc(C2c3cc4c(cc3OC(N3CCNCC3)C2C)OCO4)cc(OC)c1OC (stereo not drawn) | 24.8 µM | 0.822 µM | 17.5 µM | 14.4 µM | 3.88 µM | > 82.3 µM | 0.652 µM | 48.7 µM | 3.35 µM | > 34.4 µM | 2 µM | > 53.2 µM
11 | CC1CC(=O)N(N(C)C)C(C#N)(C#N)C1(C#N)C#N (stereo not drawn) | 26 µM | > 77.4 µM | 40 µM | 5.04 µM | 30.7 µM | > 61.8 µM | 33.2 µM | 29.3 µM | 59.7 µM | 34.8 µM | 7.99 µM | 37 µM
12 | COc1cc(-c2ccccc2N)c2cccnc2c1OC | 22.3 µM | 7.18 µM | 11.1 µM | 7.94 µM | 7.25 µM | 18.6 µM | 20.2 µM | 15.2 µM | 11.9 µM | 22 µM | 22.1 µM | 17.3 µM
13 | Cc1ccc2c(c1)C(=O)C(C1OC(=O)c3ccccc31)C2 (stereo not drawn) | > 100 µM | > 100 µM | > 100 µM | > 100 µM | > 100 µM | > 100 µM | > 100 µM | > 100 µM | > 100 µM | > 100 µM | > 100 µM | > 100 µM
14 | C[Si](C)(c1ccccc1)[C@H]1CCCC=C1CCNC1c2ccccc2CCc2ccccc21 | > 100 µM | > 100 µM | > 100 µM | > 100 µM | > 100 µM | > 100 µM | > 100 µM | > 100 µM | > 100 µM | > 100 µM | > 100 µM | > 100 µM

Reference: PubChem BioAssay (NCI)
